For twelve molecules, IC50 and Inhibition results are on record in ChEMBL document CHEMBL1128969, “Design, synthesis and in vitro activities of a series of benzimidazole/benzoxazole glycoprotein IIb/IIIa inhibitors” (Bioorg Med Chem Lett, 1996).

Each structure is given as a SMILES string.

The species named for this experiment is Homo sapiens. Briefly: In vitro inhibition of platelet aggregation using Human platelet-Rich Plasma. Type of experiment: functional.
The IC50 is the concentration at which inhibition is half-maximal. Consider `NCc1ccc(-c2nc3cc(C(=O)N[C@@H](CC(=O)O)C(=O)NCCc4c[nH]c5ccccc45)ccc3[nH]2)cc1`, for which 61 µM corresponded to half-maximal inhibition (IC50).

In the case of `NCc1ccc(-c2nc3cc(C(=O)NCCC(=O)O)ccc3[nH]2)cc1`, 100 µM corresponded to half-maximal inhibition (IC50).

`Cc1ccc(S(=O)(=O)N[C@@H](CNC(=O)c2ccc3nc(-c4ccc(C(=N)N)cc4)oc3c2)C(=O)O)cc1` yielded an IC50 of 0.01 µM.

Regarding `O=C(O)CCNC(=O)c1ccc2c(c1)ncn2CCCC1CCNCC1`, half-maximal inhibition (IC50) required 16 µM.

For the molecule `CCCCOC(=O)N[C@@H](CNC(=O)c1ccc2nc(-c3ccc(C(=N)N)cc3)oc2c1)C(=O)O`, the IC50 turned out to be 0.02 µM.

Consider `NCc1ccc(Cn2cnc3cc(C(=O)NCCC(=O)O)ccc32)cc1`, for which the IC50 was 83 µM.

As a reminder, the Inhibition is the drop in the measured response relative to a control, in per cent. In turn, `NCc1ccc(-c2nc3cc(C(=O)N[C@@H](CC(=O)O)C(=O)NCCc4ccccc4)ccc3[nH]2)cc1` returned an Inhibition of 16%.

The molecule `N=C(N)c1ccc(Cn2cnc3cc(C(=O)NCCC(=O)O)ccc32)cc1` returned an IC50 of 6.8 µM.

On to `CCCCOC(=O)N[C@@H](CNC(=O)c1ccc2[nH]c(-c3ccc(C(=N)N)cc3)nc2c1)C(=O)O`, for which the half-inhibitory concentration (IC50) came to 0.05 µM. This IC50 lies about 140-fold lower than the previous one.

`CCCCOC(=O)N[C@@H](CNC(=O)c1ccc2oc(-c3ccc(C(=N)N)cc3)nc2c1)C(=O)O` yielded an IC50 of 0.02 µM.

In turn, `Cc1ccc(S(=O)(=O)N[C@@H](CNC(=O)c2ccc3oc(-c4ccc(C(=N)N)cc4)nc3c2)C(=O)O)cc1` returned a concentration for half-maximal inhibition (IC50) of 0.01 µM. Against the preceding molecule, the IC50 is about 2-fold lower.

Take `Cc1nc2cc(C(=O)NCCC(=O)O)ccc2n1Cc1ccc(C(=N)N)cc1`: inhibition was half-maximal at 11 µM (IC50).
